Peptide text beside a SMILES is read from it. * marks the point of attachment. Cbz = O=C(OCc1ccccc1)*; CH2Cl = ClC*

The first assay has as its target T1, prolyl endopeptidase (Bos taurus, UniProt Q9XTA2).
T1 construct: prolyl endopeptidase which was purified from bovine brain; from tissue; host or cells: bovine brain
T1 sequence (Q9XTA2 1-710): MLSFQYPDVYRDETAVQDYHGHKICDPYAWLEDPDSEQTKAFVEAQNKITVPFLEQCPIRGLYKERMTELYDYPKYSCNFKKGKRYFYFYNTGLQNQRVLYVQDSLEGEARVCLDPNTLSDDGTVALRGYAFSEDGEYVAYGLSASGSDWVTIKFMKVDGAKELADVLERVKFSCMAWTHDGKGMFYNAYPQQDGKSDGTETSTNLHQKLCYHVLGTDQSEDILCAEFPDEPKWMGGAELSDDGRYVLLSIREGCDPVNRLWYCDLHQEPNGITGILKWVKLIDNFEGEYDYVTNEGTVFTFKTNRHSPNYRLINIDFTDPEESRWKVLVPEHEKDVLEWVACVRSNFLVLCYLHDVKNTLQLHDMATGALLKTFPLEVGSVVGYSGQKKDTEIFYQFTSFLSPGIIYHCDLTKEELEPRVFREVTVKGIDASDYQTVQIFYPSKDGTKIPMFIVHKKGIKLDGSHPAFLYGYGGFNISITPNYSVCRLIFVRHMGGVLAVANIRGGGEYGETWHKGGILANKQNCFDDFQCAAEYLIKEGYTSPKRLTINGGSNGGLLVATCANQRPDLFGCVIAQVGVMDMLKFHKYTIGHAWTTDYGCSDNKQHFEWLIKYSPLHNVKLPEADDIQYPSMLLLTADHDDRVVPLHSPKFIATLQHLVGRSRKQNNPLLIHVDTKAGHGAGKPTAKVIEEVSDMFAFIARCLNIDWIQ
In words: Prolyl endopeptidase inhibitory activity in vitro. Format: biochemical, bovine.
Details: not given
The protocol:
Prolyl Endopeptidase Inhibitory Activity In Vitro
Inhibitory activity of prolyl endopeptidase in vitro was measured by the following test system.
A mixed solution of 20 mM tris-HCl buffer (pH 7.5; 935 μl; containing 10 mM EDTA and 10 mM mercaptoethanol), a solution of a compound of the present invention In DMSO (10 μl) and a solution of prolyl endopeptidase which was purified from bovine brain (0.13 unit; prepared by the method described in J. Biochem., 94, 1179 (1983)) in tris-HCl buffer (15 μl) was preincubated for 15 mins at 37° C.
To the solution, 5 mM of N-benzyloxycarbonyl-glycyl-prolyl-p-nitroanilide (40 μl) in a mixture of 40% dioxane-60% water was added. The solution was incubated for 1 min at the same temperature.
Optical absorption (a1) at 405 nm of the solution, and optical absorption (a2) at 405 nm of the solution after more 30 mins' incubation at 37° C. were measured.
Optical absorptions (b1 and b2) of the solutions using DMSO instead of the solution of the compound of the present invention were also measured.
Inhibitory ratio was calculated by the following expression and IC50 (required concentration for 50% inhibition) was obtained (See Protein, Nucleic acid and Enzyme 25(6), 513, 1980.). [formula]
On to `CC(C)C(CCCCCCCc1ccccc1)C(=O)N1CCC[C@H]1C=O` (stereo partly drawn) [1(d), N-(2-isopropyl-9-phenyl-nonanoyl)-L-prolinal], for which the IC50 was 230 nM.

As to `CC(C)C(CCCCCCc1ccccc1)C(=O)N1CCC[C@H]1C=O` (stereo partly drawn) [1(c), N-(2-isopropyl-8-phenyl-octanoyl)-L-prolinal], the IC50 was found to be 190 nM. `CC(C)C(CCc1ccccc1)C(=O)N1CCC[C@H]1C=O` (stereo partly drawn) [N-(2-isopropyl-4-phenyl-butyryl)-L-prolinal, reference compound] registered an IC50 of more than 5000 nM. On to `COc1ccc(CCCCCC(C(=O)N2CCC[C@H]2C=O)C(C)C)cc1` (some centres unmarked), for which the IC50 amounted to 170 nM. `CC(C)C(CCCCCc1ccccc1)C(=O)N1CCC[C@H]1C=O` (stereo partly drawn) [1(b), N-(2-isopropyl-7-phenyl-heptanoyl)-L-prolinal] showed an IC50 of 80 nM. With `CC(C)C(CCCc1ccccc1)C(=O)N1CCC[C@H]1C=O` (stereo partly drawn) [1(a), N-(2-isopropyl-5-phenyl-pentanoyl)-L-prolinal], the IC50 turned out to be 370 nM. In turn, `CC(C)C(CCCCc1ccccc1)C(=O)N1CCC[C@H]1C=O` (stereo partly drawn) [Example 1, N-(2-Isopropyl-6-Phenylhexanoyl)-L-Prolinal] yielded an IC50 of 280 nM.

Regarding `CC(C)C(CCCCCCCCc1ccccc1)C(=O)N1CCC[C@H]1C=O` (stereo partly drawn) [1(e), N-(2-isopropyl-10-phenyldecanoyl)-L-prolinal], the IC50 came out at 120 nM. On the same count and under the same terms, under `O=C[C@@H]1CCCN1C(=O)[C@@H]1CCC[C@H]1CCCCc1ccccc1` (relative stereo) [Example 2, N-[DL-Trans-2-(4-Phenylbutyl)Cyclopentanecarbonyl] -L-prolinal] stands 130 nM.

Regarding `COc1ccc(CCCC(=O)N2CCC[C@H]2C=O)cc1` [N-[4-(4-methoxyphenyl)bu-tyryl]-L-prolinal, reference compound], the IC50 is 21000 nM.

Staying with this assay, now noted: Table I, formula (Ia); purified from bovine brain; pH 7.5, 37° C.; read-out: Concentration for 50% inhibition IC50.
Turning to “N-[9-(4-phenylbutyl)cyclo-hexane carbonyl]-L-prolinal [2(a)]”, the IC50 came out at 430 nM.

Still in this assay, the particulars now being: read-out: Concentration for 50% inhibition IC50; Table II, formula (Ib); purified from bovine brain; pH 7.5, 37° C.
As to `O=C[C@@H]1CCCN1C(=O)C(CCCCc1ccccc1)C1CCCCC1` (some centres unmarked), the IC50 is 690 nM.

In the case of `O=C[C@@H]1CCCN1C(=O)C(CCCCCc1ccccc1)c1ccccc1` (some centres unmarked), the IC50 was determined as 610 nM.

For the next assay, the system named is prolyl endopeptidase.
Assay: not given
The following applies: literature; cited from earlier work.
For the compound `O=C(NCC(=O)N1CCC[C@H]1C(=O)CCl)OCc1ccccc1` [N-benzyloxycarbonyl-glycyl-L-prolyl-chloromethane] (Cbz-Gly-Pro-CH2Cl), the “inhibition of prolyl endopeptidase (in words)” value is recorded as “strongly inhibit prolyl endopeptidase”.

These data come from patent US5262431A, “Prolinal derivatives and pharmaceutical compositions thereof” (Ono Pharmaceutical Co., Ltd., priority 1986, dated 1993).
